US8017602B2, “N-(2-(2-(5-hydroxy-3-oxo-3,4-dihydro-2H-benzo[b][1,4]oxazin-8-yl)ethylamino)ethyl)-3-(phenethoxy)propanamide derivatives, processes for their preparation, pharmaceutical compositions containing them and their use in therapy” (AstraZeneca AB, priority 2008, dated 2011)
Structures can show the parent of a compound that is named as a salt.

Columns and labels:
Adrenergic β2 = molecular target: T1, Adrenergic β2 (Homo sapiens, UniProt P07550); test: Adrenergic β2 mediated cAMP production in H292 cells (AlphaScreen cAMP detection); assay type: cell-based; details: for β2 Int Act: Intrinsic Activity, fraction relative to the maximum activity determined for formoterol; for EC50: cAMP production, 60 min at room temperature, 300 μM rolipram, read-out: β2 pEC50 (converted)
T1 construct: Adherent H292 cells were removed from tissue culture flasks; endogenous in cells; host or cells: H292 cells
Method in brief: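 H292 cells, pretreated 10 min with rolipram (300 μM final), were exposed to agonist for 60 min at room temperature in HBSS/10 mM HEPES pH 7.4 with 1.6% DMSO. Lysate cAMP was read by AlphaScreen against a standard curve; four-parameter fits gave pEC50 and intrinsic activity as a fraction of the formoterol maximum.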

[1] = molecular target: T2, recombinant human α1D receptor (Homo sapiens, UniProt P25100); test: Adrenergic α1D selectivity binding assay ([3H]-prazosin); details: inhibition of [3H]-prazosin binding, HEK293 membranes, read-out: α1 bind pIC50 (converted)
T2 construct: expressed in transfected cells; host or cells: HEK293
T2 sequence (P25100 1-572): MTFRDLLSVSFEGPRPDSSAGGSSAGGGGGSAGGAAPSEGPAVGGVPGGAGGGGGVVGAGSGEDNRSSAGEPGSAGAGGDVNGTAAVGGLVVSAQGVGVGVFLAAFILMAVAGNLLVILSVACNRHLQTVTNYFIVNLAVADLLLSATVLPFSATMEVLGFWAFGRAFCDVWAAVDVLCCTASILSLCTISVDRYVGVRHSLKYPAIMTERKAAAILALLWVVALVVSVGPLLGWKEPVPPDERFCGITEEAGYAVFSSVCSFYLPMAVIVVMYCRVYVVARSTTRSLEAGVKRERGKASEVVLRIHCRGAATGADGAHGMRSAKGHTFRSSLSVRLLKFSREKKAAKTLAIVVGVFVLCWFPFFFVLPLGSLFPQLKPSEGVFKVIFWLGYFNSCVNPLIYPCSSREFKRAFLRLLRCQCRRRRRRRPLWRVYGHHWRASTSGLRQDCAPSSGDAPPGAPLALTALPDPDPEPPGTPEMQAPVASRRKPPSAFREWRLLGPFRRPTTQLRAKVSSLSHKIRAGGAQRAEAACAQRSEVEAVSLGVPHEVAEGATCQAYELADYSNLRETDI
Method in brief: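 HEK293 membranes expressing human α1D were incubated 2 h at room temperature with 0.3 nM [3H]-prazosin in HEPES/EDTA pH 7.4 buffer. Nonspecific binding was defined with 10 μM BMY7378. After filtration and scintillation counting, pIC50 was derived by four-parameter logistic fit.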

T1 sequence (P07550 whole entry): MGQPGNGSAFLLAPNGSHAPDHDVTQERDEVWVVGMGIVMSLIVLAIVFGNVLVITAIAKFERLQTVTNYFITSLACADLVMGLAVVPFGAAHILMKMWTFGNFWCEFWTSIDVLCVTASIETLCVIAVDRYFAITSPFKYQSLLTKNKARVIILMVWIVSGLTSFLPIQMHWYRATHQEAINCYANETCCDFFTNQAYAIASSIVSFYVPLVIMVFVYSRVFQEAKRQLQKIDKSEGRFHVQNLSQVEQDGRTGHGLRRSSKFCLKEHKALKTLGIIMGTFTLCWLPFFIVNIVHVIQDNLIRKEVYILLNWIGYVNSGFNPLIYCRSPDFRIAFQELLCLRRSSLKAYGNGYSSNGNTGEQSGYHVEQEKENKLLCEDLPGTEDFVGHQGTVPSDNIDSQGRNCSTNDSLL

Compound	β2 Int Act (Adrenergic β2)	EC50 (Adrenergic β2)	IC50 [1]
C[C@@H](N(CCNCCc1ccc(O)c2c1OCC(=O)N2)C(=O)CCOCCc1cccc(-c2cnn(C)c2)c1)C(C)(C)C [Example 26, (R)—N-(3,3-Dimethylbutan-2-yl)-N-(2-(2-(5-hydroxy-3-oxo-3,4-dihydro-2H-benzo[b][1,4]oxazin-8-yl)ethylamino)ethyl)-3-(3-(1-methyl-1H-pyrazol-4-yl)phenethoxy)propanamide Trifluoroacetic Acid Salt]	0.88	12.6 nM	501 nM
CC(C)n1cc(-c2cccc(CCOCCC(=O)N(CCNCCc3ccc(O)c4c3OCC(=O)N4)C3CCCC3)c2)cn1 [Example 22, N-Cyclopentyl-N-(2-(2-(5-hydroxy-3-oxo-3,4-dihydro-2H-benzo[b][1,4]oxazin-8-yl)ethylamino)ethyl)-3-(3-(1-isopropyl-1H-pyrazol-4-yl)phenethoxy)propanamide Trifluoroacetic Acid Salt]	0.90	7.94 nM	794 nM
Cn1ccnc1-c1cccc(CCOCCC(=O)N(CCNCCc2ccc(O)c3c2OCC(=O)N3)C2CCCCC2)c1 [Example 33, N-Cyclohexyl-N-(2-(2-(5-hydroxy-3-oxo-3,4-dihydro-2H-benzo[b][1,4]oxazin-8-yl)ethylamino)ethyl)-3-(3-(1-methyl-1H-imidazol-2-yl)phenethoxy)propanamide]	0.93	12.6 nM	2000 nM
CCn1cc(-c2cccc(CCOCCC(=O)N(CCNCCc3ccc(O)c4c3OCC(=O)N4)C3CCCCC3)c2)cn1 [Example 28, N-Cyclohexyl-3-(3-(1-ethyl-1H-pyrazol-4-yl)phenethoxy)-N-(2-(2-(5-hydroxy-3-oxo-3,4-dihydro-2H-benzo[b][1,4]oxazin-8-yl)ethylamino)ethyl)propanamide]	0.90	6.31 nM	794 nM
Cc1nc(-c2cccc(CCOCCC(=O)N(CCNCCc3ccc(O)c4c3OCC(=O)N4)C3CCCCC3)c2)cn1C [Example 35, N-Cyclohexyl-3-(3-(1,2-dimethyl-1H-imidazol-4-yl)phenethoxy)-N-(2-(2-(5-hydroxy-3-oxo-3,4-dihydro-2H-benzo[b][1,4]oxazin-8-yl)ethylamino)ethyl)propanamide Trifluoroacetic Acid Salt]	1.03	12.6 nM	2000 nM
O=C1COc2c(CCNCCN(C(=O)CCOCCc3cccc(-c4cnco4)c3)C3CCCCC3)ccc(O)c2N1 [Example 10, N-Cyclohexyl-N-(2-(2-(5-hydroxy-3-oxo-3,4-dihydro-2H-benzo[b][1,4]oxazin-8-yl)ethylamino)ethyl)-3-(3-(oxazol-5-yl)phenethoxy)propanamide Trifluoroacetic Acid Salt]	0.88	10 nM	316 nM
Cn1cc(-c2cc(F)cc(CCOCCC(=O)N(CCNCCc3ccc(O)c4c3OCC(=O)N4)C3CCCCC3)c2)cn1 [Example 17, N-Cyclohexyl-3-(3-fluoro-5-(1-methyl-1H-pyrazol-4-yl)phenethoxy)-N-(2-(2-(5-hydroxy-3-oxo-3,4-dihydro-2H-benzo[b][1,4]oxazin-8-yl)ethylamino)ethyl)propanamide Trifluoroacetic Acid Salt]	0.94	7.94 nM	501 nM
CC(C)n1cc(-c2cccc(CCOCCC(=O)N(CCNCCc3ccc(O)c4c3OCC(=O)N4)C3CCCCC3)c2)nn1 [Example 12, N-Cyclohexyl-N-(2-(2-(5-hydroxy-3-oxo-3,4-dihydro-2H-benzo[b][1,4]oxazin-8-yl)ethylamino)ethyl)-3-(3-(1-isopropyl-1H-1,2,3-triazol-4-yl)phenethoxy)propanamide Trifluoroacetic Acid Salt]	0.91	20 nM	1580 nM
